Experimental data from patent publication US4585784A, “Pyrrole-2-acetylamino acid derivative compounds” (McNeilab, Inc., priority 1983, dated 1986).
Read-outs that look alike come from different tables or passages of the source.

Assays:
[1] = rat adjuvant arthritis test (antiinflammatory activity); type: in vivo, Female Wistar/Lewis rats; conditions: oral, daily for 4 days, inhibition of noninjected hind paw volume vs controls, compounds given as aqueous solutions of sodium salts
Experimental: The antiinflammatory activity of the compounds of the instant invention was measured using the rat adjuvant arthritis test [S. Wong, J. F. Gardocki and T. P. Pruss, J. Pharmacol. and Exp. Ther. 185, 127 (1973)]. Female Wistar/Lewis rats were given an injection of heat-killed Mycobacterium butyricum in light mineral oil. After 11 days, the animals which had developed an arthritic condition were selected and given daily oral doses of test drug for 4 days. Paw volumes were measured and the percent inhibition of the noninjected hind paw as compared to controls was calculated. The results (Table I) are expressed as ED50 (mg/kg/day).

[2] = gastric ulceration test (ability to induce gastric ulceration, 4 days oral dosing); conditions: in vivo; for selectivity ratio: therapeutic index in respect to gastric ulceration, * = significantly different from parent compound p ≤0.05, read-out: AII (antiinflammatory index, UD50/ED50)
Experimental: In addition to their antiinflammatory activity, the compounds were evaluated for their ability to induce gastric ulceration since gastric irritation is the most significant side effect following administration of prostaglandin biosynthesis inhibitors. As described by Wong et al., the dose (UD50 mg/kg/day) required to produce 50 percent ulcerogenic response following 4 days of oral dosing with test drug was determined. The results are shown in Table I. As described by Wong et al., a therapeutic index in respect to gastric ulceration, the "antiinflammatory index (AII)" defined as UD50 /ED50, was determined.

[3] = test system: prostaglandin biosynthesis; conditions: cited from earlier work
[4] = in vivo; cited from earlier work

Structure (SMILES) | ED50 ([1]; 96 h, read-out: ED50) [mg/kg] | TD50 at 96 h [2] [mg/kg] | selectivity ratio [2] | ED50 [1] [mg/kg/day] | AII (antiinflammatory index, UD50/ED50) [2] | UD50 ([2]; 96 h) [mg/kg/day] | mode of action (in words) [3] | side effect (in words) [4]
Cc1cc(CC(=O)NCC(=O)O)n(C)c1C(=O)c1ccc(Cl)cc1 [Example VII, N-{[5-(4-chlorobenzoyl)-1,4-dimethyl-1H-pyrrol-2-yl]-acetyl}-glycine] | 0.61 | 21.1 | 34.4 | – | – | – | – | –
Cc1cc(CC(=O)NC(C)C(=O)O)n(C)c1C(=O)c1ccc(Cl)cc1 (centres unmarked) [VIII (1), N--{[5-(4-chlorobenzoyl)-1,4-dimethyl-1H--pyrrol-2-yl]-acetyl}-alanine] | 0.67 | 25.4 | 37.6 | – | – | – | – | –
CSCCC(NC(=O)Cc1cc(C)c(C(=O)c2ccc(Cl)cc2)n1C)C(=O)O (centres unmarked) [VIII (2), N--{[5-(4-chlorobenzoyl)-1,4-dimethyl-1H--pyrrol-2-yl]-acetyl}-methionine] | 0.93 | 43.7 | 46.9 | – | – | – | – | –
Cc1cc(CC(=O)N[C@@H](CCC(=O)O)C(=O)O)n(C)c1C(=O)c1ccc(Cl)cc1 [VIII (3), N--{[5-(4-chlorobenzoyl)-1,4-dimethyl-1H--pyrrol-2-yl]-acetyl}-glutamic acid] | – | – | – | 0.54 | 68.9 | 37.0 | – | –
Cc1cc(CC(=O)NC(CC(=O)O)C(=O)O)n(C)c1C(=O)c1ccc(Cl)cc1 (centres unmarked) [VIII (4), N--{[5-(4-chlorobenzoyl)-1,4-dimethyl-1H--pyrrol-2-yl]-acetyl}-aspartic acid] | 0.76 | 71 | 93.1 | – | – | – | – | –
Cc1cc(CC(=O)NC(CCCCN)C(=O)O)n(C)c1C(=O)c1ccc(Cl)cc1 (centres unmarked) [X, N^2 -{[5-(4-chlorobenzoyl)-1,4-dimethyl-1H-pyrrol-2-yl]-acetyl}-lysine-hydrate(5:8)] | 0.64 | 35.1 | 54.8 | – | – | – | – | –
Cc1cc(CC(=O)N[C@@H](CCC(N)=O)C(=O)O)n(C)c1C(=O)c1ccc(Cl)cc1 [XI, N-{[5-(4-chlorobenzoyl)-1,4-dimethyl-1H-pyrrol-2-yl]-acetyl}-glutamine] | 0.72 | 33.4 | 46.5 | – | – | – | – | –
Cc1cc(CC(=O)O)n(C)c1C(=O)c1ccc(Cl)cc1 [zomepirac, [5-(4-chlorobenzoyl)-1,4-dimethyl-1H-pyrrol-2-yl]acetic acid, reference compound] | 0.51 | 13.8 | 27.2 | – | – | – | inhibition of prostaglandin biosynthesis | gastrointestinal irritation
